From patent US6110491A, “Compound-loaded liposomes and methods for their preparation” (Hermes Biosciences, Inc., priority 1997, dated 2000)
In brackets after ≈: the same amount, converted by molar mass. Entries after “also recorded” stand apart in the source; their conditions may differ.

What was measured:
[1] = Doxorubicin loading into liposomes containing ammonium polyacrylate or sulfate in absence of ammonium ion gradient (Example 7); format: physicochemical; details: for Doxorubicin absorbed by liposomes: no ammonium ion gradient; for Doxorubicin incorporation into liposomes: outer Cl-
Method: Liposomes with entrapped ammonium sulfate or ammonium polyacrylate were prepared from the lipid mixture of hydrogenated soybean phosphatidylcholine (Avanti PolarLipids, Ala., U.S.A.), cholesterol (Calbiochem, USA), and poly(ethylene glycol) (Mol. weight 2,000) derivative of distearoyl phosphatidyl ethanolamine (PEG-DSPE) (Sygena, Switzerland), at the molar ratio 60:40:6, by lipid film hydration, repetitive freezing-thawing at 60° C. (6 times) and extrusion through two stacked polycarbonate track-etched membranes with the pore size 100 nm at 60° C. (12 times). The bulk aqueous phase of the liposomes was exchanged by gel-filtration for the outer buffer, 0.2 M ammonium chloride, adjusted (when necessary) to pH 7.3 and buffered with 10 mM sodium hydroxyethylpiperazino-ethane sulfonate (HEPES). The inner (entrapped) solution had ammonium ion concentration of 200 milli-eqivalent/L, i.e. the same as the outer buffer (no ammonium ion gradient), and the anion composition and pH as indicated below. Polyacrylic acid with mol. weight of 2,000 (Aldrich Chemical Co.) was used. Doxorubicin was added to the liposomes at 2 mg for each 6-8 micro-mol of phospholipid, and incubated with shaking at 60° C., i.e. above the transition temperature of the lipid bilayer, for various times as specified below. […] Doxorubicin-loaded liposomes were separated from the free drug by gel-chromatography on Sephadex G-75, eluted with the outer buffer. Liposomal doxorubicin was assayed by spectrophotometry at 485 nm, phospholipid was quantitated by molybdate method after acid digestion of the liposomes.

[2] = Effect of membrane-active ion carriers on loading of doxorubicin into liposomes with entrapped potassium polyacrylate (Example 6, FIG. 1); format: physicochemical; details: valinomycin, CCCP or nigericin vs. none (FIG. 1)
Text: The liposomes prepared according to the present invention can be clearly distinguished from similar liposomes prepared by pH gradient, or ammonium ion gradient methods, by the liposomal response to membrane-active ion carriers which destroy transmembrane electrochemical gradients. For example, CCCP is a membrane proton carrier which destroys transmembrane pH gradients and leads to quick release of a liposomal-entrapped compound.
In contrast, liposomes prepared according to this invention, load doxorubicin in the presence of CCCP or nigericin with nearly the same efficiency as in the absence of such membrane-active ion carriers. This is shown in FIG. 1, where the loading of doxorubicin into liposomes in the presence of valinomycin, CCCP or nigericin was determined as a function of time. The liposomes were prepared as described in Example 1 to have entrapped potassium polyacrylate.

[3] = system: Human nasopharyngeal epidermoid carcinoma (KB) cells; experiment: Cytotoxicity, growth inhibition by tetrazolium assay (96 hour incubation); format: cell-based; details: read-out: 50% growth inhibitory concentration (IC50)
Method: Human nasopharyngeal epidermoid carcinoma (KB) cells were from American Type Culture Collection (ATCC, Rockville, M.D.). The cells were grown in RPMI 1640 medium supplemented with 10% heat inactivated fetal calf serum, harvested by trypsinization, and plated in 96-well tissue culture plates at 2×10^4 cells/well. After a 24 hour acclimation period, a solution of free doxorubicin or the doxorubicin liposomes described in Example 1 were added to the cells to achieve final doxorubicin concentrations of 0.125-8 μg/ml. "Empty" liposomes were added to control cells at matching concentrations of the lipid. After a 96 hour incubation period, viability of the cells was measured by tetrazolium assay (Carmichael, et al., 1987). 50% growth inhibitory concentrations (IC50) of the studied preparation were as follows: […]

[4] = Doxorubicin loading into liposomes with entrapped polyacrylate / chondroitin sulfate A (Examples 1, 3); format: physicochemical
Method: 21.6 mg of polyacrylic acid (molecular weight 2,000; Aldrich Corporation, Milwaukee, Wis.) were dissolved in 3 ml of water and neutralized to pH 7.4 with NaOH to produce 100 milli-eq/L sodium polyacrylate solution. 10 mg of the mixture of egg PC, cholesterol, and PEG (molecular weight 2,000)-DSPE (Avanti Polar Lipids, Birmingham, Ala.) in the molar ratio of 10:5:1 was dissolved in chloroform, the solvent was evaporated in vacuum, the lipid film was incubated with shaking in 1 ml of the above polyacrylate solution, and the lipid dispersion was extruded under pressure through 2 stacked Nucleopore (Pleasanton, Calif.) membranes with pore size […]. […] To the so obtained liposomes, doxorubicin (Cetus Oncology, Norwalk, Conn.) was added at 200 nmol/μmol, of liposomal phospholipid. The mixture was incubated overnight at 37° C. with shaking, treated with Dowex 50W×4 (Sigma Chemical Co., St. Louis, Mo.), and equilibrated with NaCl-HEPES solution to remove non-encapsulated doxorubicin. The resulting liposomes were sterilized by filtration through a […] filter and assayed for doxorubicin by spectrophotometry and liposomal phospholipid by acid digestion-molybdene blue assay. […] Under similar conditions, doxorubicin loading into liposomes without entrapped sodium polyacrylate was 8 nmol/μmol of phospholipid.
Liposomes were prepared as in Example 1, except that inner buffer, instead of polyacrylic acid, contained 5 mg/ml of chondroitinsulfate A (Sigma Chemical Co., St. Louis, Mo.). After overnight incubation with doxorubicin ([…] of phospholipid) at pH 7.2, free drug was removed from the liposomes, and the liposomes were assayed as in Example 1. The doxorubicin content in the resulting liposomes was 26.0 nmol/μmol of phospholipid.

With COc1cccc2c1C(=O)c1c(O)c3c(c(O)c1C2=O)C[C@@](O)(C(=O)CO)C[C@@H]3O[C@H]1C[C@H](N)[C@H](O)[C@H](C)O1 [doxorubicin] the “Doxorubicin absorbed by liposomes” value ([1]; ammonium polyacrylate liposomes) was “considerable amounts”, the “Doxorubicin absorbed by liposomes” value ([1]; ammonium sulfate liposomes, 60° C.) was “very small amounts” and the Doxorubicin precipitate formation ([1]; in the presence of polyacrylate anion, 60° C.) was “visibly precipitated”. The Doxorubicin precipitate formation ([1]; in the presence of sulfate anion, 60° C.) was “did not form a detectable precipitate”, the “Doxorubicin incorporation into liposomes” value ([1]; inner SO4^2-, pH 7.3, 1 hour, 60° C.) was 6.1 ± 0.8 mg of drug/mmol of liposome ph and the “Doxorubicin incorporation into liposomes” value ([1]; inner SO4^2-, pH 7.3, 16 hours, 60° C.) was 5.1 ± 0.2 mg of drug/mmol of liposome ph. The “Doxorubicin incorporation into liposomes” value ([1]; inner polyacrylate, pH 5.2, 1 hour, 60° C.) was 59.7 ± 2.5 mg of drug/mmol of liposome ph, the “Doxorubicin incorporation into liposomes” value ([1]; inner polyacrylate, pH 7.3, 1 hour, 60° C.) was 91.0 ± 2.8 mg of drug/mmol of liposome ph and the “Doxorubicin loading in presence of membrane-active ion carriers” value [2] was “substantially equal efficiency; also recorded: substantially unaffected”. The IC50 [3] was 0.35 µg/mL (≈ 0.644 µM), the “Doxorubicin content in the resulting liposomes” value ([4]; entrapped chondroitin sulfate A 5 mg/ml, overnight, pH 7.2) was 26.0 nmol/μmol of phospholipid and the “Doxorubicin content of liposomes” value ([4]; entrapped sodium polyacrylate, egg PC/cholesterol/PEG-DSPE, doxorubicin 200 nmol/μmol, overnight 37° C.) was 129 nmol/μmol of liposomal phospholipid. The “Doxorubicin loading into liposomes” value ([4]; without entrapped sodium polyacrylate, similar conditions) was 8 nmol/μmol of phospholipid.
